In PMC9671962 (Communications Biology, 2022):
“And” between values parts separate entries of the source, which are not always exact repeats. Identical values can stand only once.

Columns and labels:
COG-N-471x = experiment: Pre-clinical efficacy study, COG-N-471x PDX; type: in vivo; settings: 36 MBq/kg/fraction x 4 fractions, single mouse
Protocol: (§1) Patient demographics and genetic characteristics are listed in (Supplementary Tables 1, 2)[17]. The maximum tolerated dose (MTD) was determined to be 36 MBq/kg administered by intra-peritoneal injection twice weekly for a total of 4 dose fractions and this fractionated regimen was used in all studies (Supplementary Fig. 1)[18],[19]. […] Nine of 11 PDX models were MYCN amplified (Fig. 1b), which is a hallmark of high-risk neuroblastoma. Tumor response was measured as the maximum percent decrease in tumor volume after treatment and event-free survival (EFS) was measured by the area over the curve method with tumor events pre-defined by tumor growth exceeding 2 cm[3],[18].
(§2) The use of 2 mice per arm was based on the previously reported statistical analysis. […] Two additional dose levels of 12, and 24 MBq/kg/fraction were assessed in a subset of models and were administered as stated above. […] Tumors were measured using a digital caliper at the initiation of the study and two times per week during the treatment period. Tumor volumes were calculated as volume = ((diameter^1/2 + diameter^2/2)^3∗0.5236)/1000. Weights were obtained twice weekly and mice were monitored daily for signs of toxicity. […] Tumor response was assessed by best response defined as greatest reduction in tumor volume following the last dose and is presented as percent change in tumor volume. […]

COG-N-421x = experiment: Pre-clinical efficacy study, COG-N-421x PDX; type: in vivo; settings: 36 MBq/kg/fraction x 4 fractions, single mouse
Protocol: as §1, §2

[1] = system: platelets, white blood cells, lymphocytes, neutrophils; experiment: Hematological toxicity by complete blood counts; type: in vivo, CB-17 SCID mice; set-up: Neutrophils / Lymphocytes / WBC: unit not given here; settings: for Lymphocytes / Neutrophils / Platelets / WBC: 72 hours post-treatment, single mouse
Protocol: Toxicity studies were done in nontumor bearing CB-17 SCID mice (Taconic Biosciences). […] Each arm had n = 10 mice (5 male, 5 female mice). […] The vehicle group received an equal volume of saline (placebo). Weights were obtained twice weekly and mice were monitored daily for signs of toxicity. […] On target hematological and marrow toxicity which was evaluated by complete blood counts and marrow colony formation assay. An additional study was performed under identical conditions to evaluate additive dose effects. […] Each treatment group was composed of equal numbers of male and female mice to rule out gender-specific effects (n = 4 per treatment group per time point). Mice were followed for signs of acute toxicity for 2 weeks and 4 weeks before euthanasia. An additional group (n = 4) treated at 36 MBq/kg was euthanized after 72 h to assess early signs of toxicity by colony formation assays. This time course was chosen to best capture the nadir of bone marrow suppression. After euthanasia, blood was collected and femurs were dissected and processed for histopathology and bone marrow evaluation.
Animals were monitored weekly for weight and daily for signs of distress until the time of euthanasia. […] Mice were anesthetized with mixed inhalation isoflurane/oxygen under a nosecone. Terminal cardiac puncture was performed and peripheral blood was transferred to K2EDTA BD Microtainer tubes (BD, San Antonio, TX). Sample volume injected was 20 µL and was pre-specified using the mouse protocol on the instrument.

[2] = set-up: method as in PMID 31072830; settings: cited from earlier work

**Q.** What does the source list for O=C1NCCn2c(-c3ccc([211At])cc3)nc3cccc1c32 [[^211At]PTT, Astatine-211-parthanatine]?
**A.** EFS by AOC method (COG-N-471x): 83.4773 days and 64.9075 days; Tumor response (% growth from study initiation at ~ 200 mm3) (COG-N-471x): -100%; EFS by AOC method (COG-N-421x): 61.4391 days and 76.0056 days; Tumor response (% growth from study initiation at ~ 200 mm3) (COG-N-421x): -100%; thrombocytopenia ([1]; 3 or less dose fractions at the 36 MBq/kg dose level): did not result in thrombocytopenia; Lymphocytes ([1]; 36 MBq/kg x 4 dose fractions): 0.28 and 0.26 and 0.38 and 0.27; Neutrophils ([1]; 36 MBq/kg x 4 dose fractions): 0.42 and 0.22 and 0.16 and 0.34; Platelets ([1]; 36 MBq/kg x 4 dose fractions): 263 K/uL and 99 K/uL and 201 K/uL and 158 K/uL and 200 K/uL; WBC ([1]; 36 MBq/kg x 4 dose fractions): 0.78 and 0.26 and 0.58 and 0.62 and 0.7; Lymphocytes ([1]; 48 MBq/kg x 4 dose fractions): 0.14 and 0.29 and 0.08 and 0.12 and 0.25; Neutrophils ([1]; 48 MBq/kg x 4 dose fractions): 0.24 and 0.18 and 0.26 and 0.09 and 0.13; Platelets ([1]; 48 MBq/kg x 4 dose fractions): 200 K/uL and 160 K/uL and 240 K/uL and 190 K/uL and 133 K/uL; WBC ([1]; 48 MBq/kg x 4 dose fractions): 0.5 and 0.6 and 0.36 and 0.26 and 0.48; Lymphocytes ([1]; 60 MBq/kg x 4 dose fractions): 0.28 and 0.29 and 0.41 and 0.11; Neutrophils ([1]; 60 MBq/kg x 4 dose fractions): 0.41 and 0.09 and 0.71 and 0.08; Platelets ([1]; 60 MBq/kg x 4 dose fractions): 112 K/uL and 166 K/uL and 138 K/uL and 165 K/uL and 116 K/uL; WBC ([1]; 60 MBq/kg x 4 dose fractions): 0.14 and 0.76 and 0.44 and 1.42 and 0.22; Hematological toxicity versus control ([1]; 72 hours after the final dose fraction, 36, 48, 60 MBq/kg/fraction x 4): significant reductions in platelets, white blood cells, and lymphocytes at all dose levels; time of full recovery from hematological and marrow toxicity ([1]; post-therapy at the MTD): ≤ 4 weeks; time of full recovery of peripheral blood counts ([1]; post-treatment, 2 or 3 dose fractions of 36 MBq/kg): 4 weeks; Effect on neutrophils ([1]; treatment with [^211At]PTT): largely unaffected; outcome of single dose ([2]; 1,480 kBq administered as a single dose): lethal; outcome of fractionated dose ([2]; 1,480 kBq separated into 4 dose fractions given twice weekly): tolerated
